These results are taken from article PMC12491243, “Rational design of indoleamine 2,3-dioxygenase 1 (IDO1) inhibitors featuring 1,2,3-triazole derivatives with enhanced anti-inflammatory and analgesic efficacy” (Frontiers in Pharmacology, 2025).

One data set deals with dopamine D2 receptor. More on the design: method as in earlier work. As to conditions: ref Crosignani et al., 2017; González-Gutiérrez et al., 2025; Mendez-Rojas et al., 2018; cited from earlier work.
The test system of a further data set is 5-HT reuptake. On the set-up: method as in earlier work. As to conditions: ref Crosignani et al., 2017; González-Gutiérrez et al., 2025; Mendez-Rojas et al., 2018; cited from earlier work.
Data set [1] has as its target T1, IDO1 (Homo sapiens, UniProt P14902).
T1 construct: endogenous in cells; host or cells: HeLa cells stimulated with 100 ng/mL human IFN-γ
Description: HeLa cell-based IDO1 inhibition assay. As to conditions: HeLa cells, 100 ng/mL human IFN-γ, 18 h, kynurenine absorbance at 480 nm. Here is the method: To evaluate the IDO1 inhibitory activity of the newly synthesized derivatives, HeLa cells with high IDO1 expression were used as the experimental model. […] To perform the HeLa cell-based IDO1 inhibition assay, HeLa cells were seeded at a density of 50,000 cells per well in a 96-well microplate containing 100 μL of DMEM supplemented with 10% fetal bovine serum and 1% penicillin-streptomycin. The cells were incubated overnight at 37 °C in a humidified atmosphere with 5% CO2. The following day, 100 μL of growth medium containing diluted inhibitors and 100 ng/mL human IFN-γ was added to each well. The cells were then incubated at 37 °C in a CO2 incubator for 18 h. […] The plate was incubated at 50 °C for 30 min and then centrifuged at 2,500 rpm for 10 min to remove any sediment. Next, 100 μL of the supernatant was transferred to a separate 96-well plate and mixed with 100 μL of 2% (w/v) 4-(dimethylamino)benzaldehyde in acetic acid. After a 10-min incubation at room temperature, the absorbance of the resulting yellow color, indicative of kynurenine, was measured at 480 nm using a microplate reader.

A further data set relates to TDO. More on the design: method as in Rohrig et al., 2012; Rohrig et al., 2019. As to conditions: ref Rohrig et al., 2012, 2019; cited from earlier work.
The conditions of data set [2]: 2019, cited from earlier work.
The subject of data set [3] is IDO1. As to conditions: read-out: IC50 in enzymatic assays, cited from earlier work.
A further data set has as its system human IDO1. More on the design: method as in Rohrig et al., 2012; Rohrig et al., 2019. As to conditions: ref Rohrig et al., 2012, 2019, read-out: IC50 in cellular assays, human IDO1; cited from earlier work.
In a further data set the test system is mouse IDO1. On the set-up: method as in Rohrig et al., 2012; Rohrig et al., 2019. As to conditions: ref Rohrig et al., 2012, 2019, read-out: IC50 in cellular assays, mouse IDO1; cited from earlier work.
A further data set relates to kynurenine production. More on the design: method as in Wang et al., 2019. As to conditions: treated cells, low concentrations; ref Wang et al., 2019; cited from earlier work.
In data set [4] the test system is IDO1. As to conditions: cited from earlier work.
A further data set concerns IDO1 in MDA-MB-231 cells. More on the design: method as in Panda et al., 2019. As to conditions: ref Panda et al., 2019; cited from earlier work.
In data set [5] the test system is IDO1. More on the design: method as in Alexandre et al., 2018. As to conditions: ref Alexandre et al., 2018; read-out: IC50 in cellular assays; cited from earlier work.
Data set [6] has as its system Lewis lung carcinoma (LL2). More on the design: method as in Pan et al., 2020. As to conditions: ref Pan et al., 2020, cited from earlier work.
In data set [7] the test system is hepatocellular carcinoma (Hepa1-6). On the set-up: method as in Pan et al., 2020. As to conditions: hepatocellular carcinoma (Hepa1-6) model; ref Pan et al., 2020; cited from earlier work.

Like-named read-outs stand apart in the source and are kept apart here.

T1 sequence (P14902 whole entry): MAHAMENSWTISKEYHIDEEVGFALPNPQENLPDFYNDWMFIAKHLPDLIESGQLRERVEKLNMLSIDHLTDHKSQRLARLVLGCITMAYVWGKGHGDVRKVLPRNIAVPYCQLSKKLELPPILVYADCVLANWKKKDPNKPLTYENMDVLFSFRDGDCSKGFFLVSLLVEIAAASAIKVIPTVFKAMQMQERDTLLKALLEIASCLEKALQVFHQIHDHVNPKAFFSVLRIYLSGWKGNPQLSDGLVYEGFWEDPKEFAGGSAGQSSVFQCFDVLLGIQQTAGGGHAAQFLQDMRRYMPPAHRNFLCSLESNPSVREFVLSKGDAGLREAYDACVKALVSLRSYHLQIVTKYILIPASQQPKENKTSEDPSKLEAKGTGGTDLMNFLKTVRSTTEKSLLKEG

As to `CC(CCN1CCN(c2cccc3c2OCC(=O)N3)CC1)c1c[nH]c2ccc(F)cc12` (stereo not drawn) [Compound 11], the “dopamine D2 receptor inhibition” value with dopamine D2 receptor was “potent”. Moreover, the “activity in inhibiting 5-HT reuptake” value with 5-HT reuptake was “high activity”.

One may read the IC50 as the concentration that gives 50% inhibition. For the molecule `O=C1COc2ccc(NC(=O)c3cccc(-c4cn(Cc5ccccc5F)nn4)c3)cc2N1` [Compound 14j], the IC50 against IDO1 [1] was above 30 µM.

Regarding `Oc1ccc(Cl)cc1-c1c[nH]nn1` [Compound 3], in the data set on TDO, the “activity against TDO” value was “no activity”. In addition, the cytotoxicity entry in data set [2] (cellular assays, ref Rohrig et al., 2012, Rohrig et al.) was “minimal cytotoxicity”. Further, the IC50 with IDO1 [3] (ref Rohrig et al., 2012, Rohrig et al., 2019) was 0.33 µM; with human IDO1, 0.08 µM; in the data set on mouse IDO1, 0.002 µM.

For `COc1cccc2c1C(=O)C1=C(C[C@H](Cn3cc(-c4ccccc4)nn3)O[C@@H]1C)C2=O` [Compound 5], the cytotoxicity result in data set [2] (ref Wang et al.) is on record as “minimal cytotoxicity”. Besides, the “reduction of kynurenine production” value in the data set with kynurenine production was “over 60%”. Besides, the IC50 with IDO1 [4] (ref Wang et al., 2019, read-out: potency against IDO1, IC50) is 6 µM.

`Cc1cc(C)cc(Cn2cc(-c3cccc(C(=O)Nc4ccc5c(c4)NC(=O)CO5)c3)nn2)c1` [Compound 14b] gave an IC50 at IDO1 [1] above 30 µM.

`O=C1COc2ccc(NC(=O)c3cccc(-c4cn(Cc5ccc(F)cc5)nn4)c3)cc2N1` [Compound 14i] showed an IC50 against IDO1 [1] above 30 µM.

Take `O=C1COc2ccc(NC(=O)c3cccc(-c4cn(Cc5ccc(Br)cc5)nn4)c3)cc2N1` [Compound 14a]: the IC50 at IDO1 [1] was determined as 11.2 µM.

The molecule `O=C1COc2ccc(NC(=O)c3cccc(-c4cn(Cc5cc(Cl)ccc5F)nn4)c3)cc2N1` [Compound 14h] gave a half-inhibitory concentration (IC50) against IDO1 [1] of 9.98 µM.

Turning to `O=C1COc2ccc(NC(=O)c3cccc(-c4cn(Cc5cccc(Cl)c5)nn4)c3)cc2N1` [Compound 14g], the concentration for half-maximal inhibition (IC50) against IDO1 [1] is 10.1 µM.

In the case of `N#Cc1ccc(F)cc1Cn1cc(-c2cccc(C(=O)Nc3ccc4c(c3)NC(=O)CO4)c2)nn1` [Compound 14d], the IC50 against IDO1 [1] was above 30 µM.

On IDO1 [1], `O=C1COc2ccc(NC(=O)c3cccc(-c4cn(Cc5cc(F)c(F)c(F)c5)nn4)c3)cc2N1` [Compound 14c] registered an IC50 above 30 µM.

For `NS(=O)(=O)NCCNC(=O)c1n[nH]nc1-c1ccc(F)c(F)c1` [Compound 6], the cytotoxicity result in data set [2] (ref Panda et al.) was “negligible cytotoxicity”. Besides, the “IDO1 inhibition in MDA-MB-231 cells” value in the data set with IDO1 in MDA-MB-231 cells is reported as “strong IDO1 inhibition”.

Consider `O=C1COc2ccc(NC(=O)c3cccc(-c4cn(Cc5ccc(F)c(Cl)c5)nn4)c3)cc2N1` [Compound 14f], for which the IC50 against IDO1 [1] came to 8.02 µM.

As for `Clc1ccc(Nc2c[nH]nn2)cc1` [Compound 4], the half-maximal inhibitory concentration (IC50) is 11.3 µM with IDO1 [3] (ref Alexandre et al., 2018) and 0.023 µM with IDO1 [5].

Consider `O=C1c2cc(F)ccc2C(=O)c2c1nnn2-c1ccc(F)c(Cl)c1` [Compound 2], for which the “toxicity in vivo models” value in data set [6] (LL2 and Hepa1-6 in vivo models) is recorded as “minimal toxicity”. For the same molecule, the “anti-tumor activity in vivo” value in data set [6] (Lewis lung carcinoma (LL2) model) and in [7] was “significant anti-tumor activity” each time. Besides, the 50% inhibitory concentration (IC50) in the data set with IDO1 [4] (ref Pan et al., 2020, read-out: IDO1 inhibition IC50) was 0.005 µM.
